Molecules are shown by their SMILES. A value given as a limit tells only on which side of the number the result lay.

Assay type in all cases: in vivo
The test system of one assay is Aedes aegypti. Put plainly: one-choice mosquito landing rate inhibition assay. The protocol:
The clonal population serving as source material for the essential oil was the ‘CR3’ cultivar. The hydro-distilled essential oil from this population was used as the source for the crude essential oil treatment and was partitioned for subsequent fractionation and nepetalactone purification. The clones were transplanted to the field. Immediately before the plants were in full flower, they were harvested and dried at 37° C. with an onsite Powell walk-in forced air heat dryer kept under low heat conditions. Once the plants had lost all moisture, under the temperature and pressure conditions, the leaves and flowers were separated from the stems for hydro-distillation. Essential oils were extracted by hydro-distilling 60 g of dried N. cataria leaves and flowers. They were distilled in a 2 L round bottom flask for 3 hours in 1 L of water and the essential oil was collected in a Clevenger-type trap. The essential oils were then prepared and analyzed by GC/MS. The CR3 essential oil contained about 29% Z, E-nepetalactone and about 59% E, Z-nepetalactone (% of the total essential oil). […]
(§1) Repellency was determined by a one-choice landing assay that uses the amount of mosquito landings to calculate the overall effectiveness of the candidate repellent. […] Time lapse photography recorded one image every five seconds. […]

Another assay relates to Anopholes gambiae. As to the kind of experiment: one-choice mosquito landing rate inhibition assay. The protocol: The clonal population serving as source material for the essential oil was the ‘CR3’ cultivar. The hydro-distilled essential oil from this population was used as the source for the crude essential oil treatment and was partitioned for subsequent fractionation and nepetalactone purification. The clones were transplanted to the field. Immediately before the plants were in full flower, they were harvested and dried at 37° C. with an onsite Powell walk-in forced air heat dryer kept under low heat conditions. Once the plants had lost all moisture, under the temperature and pressure conditions, the leaves and flowers were separated from the stems for hydro-distillation. Essential oils were extracted by hydro-distilling 60 g of dried N. cataria leaves and flowers. They were distilled in a 2 L round bottom flask for 3 hours in 1 L of water and the essential oil was collected in a Clevenger-type trap. The essential oils were then prepared and analyzed by GC/MS. The CR3 essential oil contained about 29% Z, E-nepetalactone and about 59% E, Z-nepetalactone (% of the total essential oil).
as §1

In a further assay the test system is Dermacentor variabilis. As to the kind of experiment: one-choice tick filter paper repellency assay (petri dish arena). Conditions: D. variabilis, 15 minutes, three replicates. The protocol:
(§2) An arena was constructed out of petri dishes to establish a dose response curve of a repellent ('CR3′ essential oil or DEET) filter paper by monitoring the total amount of tick positions over 15 minutes (1 image every 15 sec) and calculating percent repellency. ‘CR3’ oils were extracted with acetone as described in Example 3. In a one-choice assay, the repellent was applied to half of the filter paper and placed into the petri dish where the ticks are placed, the petri dish cover applied, and the number of ticks counted applied to the repellent zone. In the two-choice repellency test (see FIG. 6), DEET and a repellent (‘CR3’ essential oil) were applied to different sides of the filter paper and the ticks are counted in reference to the test repellent, not DEET. Total Tick positions=(# ticks in petri dish)×(60 images) Percent repellency=[(# of ticks in the repellent zone)/(Total Tick positions)]*100 Three replicates were performed for each treatment. Complete repellency was defined as repelling greater than 95% of the ticks.

A further assay has as its system Ixodes scapularis. The assay is described as above. The conditions noted are these: I. scapularis, 15 minutes, three replicates. The protocol: as §2
The mark [1] stands for this setting: 0.01% of the treatment applied to the filter paper.

Regarding `CCN(CC)C(=O)c1cccc(C)c1` [DEET], in the assay on Aedes aegypti (setting [1]), the “reduction of A. aegypti landing” value was “about 32%”. Also, the “decrease of mosquito landings (repellency)” value with Aedes aegypti (A. aegypti, treatment at 1% on filter paper) is listed as above 95%; in the assay with Anopholes gambiae (A. gambiae, treatment at 1% on filter paper) it was above 95%. Further, the “reduction of A. gambiae landing” value with Anopholes gambiae (setting [1]) is “about 35%”. Further, the percent repellency amounted to 86.06±10.2 with Dermacentor variabilis (applied at 0.1%), 99.31±1.00 with Dermacentor variabilis (applied at 1%), 59.16±8.94 in the assay with Ixodes scapularis (applied at 0.1%) and 99.79±0.36 with Ixodes scapularis (applied at 1%).

These data come from patent US10952390B2, “Catnip cultivar ‘CR3’” (Rutgers, The State University of New Jersey, priority 2016, dated 2021).
